Source: the NIST ThermoML archive (doi:10.1016/j.tca.2018.01.023)
Values joined by “and” are separate entries in the source; they are usually repeats but may differ in a detail not shown here. Identical values can stand only once.

Assay: molar heat capacity at constant pressure
Settings: 101.33 kPa, Crystal, Small sample (50 mg) DSC

[Ca+2].[O]=[Mo](=[O])([O-])[O-] [calcium molybdate(VI)]
Settings	molar heat capacity at constant pressure
495.4 K	135.5 J/K/mol
495.8 K	135.8 J/K/mol
496.4 K	135.6 J/K/mol
496.8 K	135.8 J/K/mol
497.4 K	135.6 J/K/mol
497.8 K	135.9 J/K/mol
498.4 K	135.7 J/K/mol
498.8 K	136 J/K/mol
499.4 K	135.8 J/K/mol
499.8 K	136 J/K/mol
500 K	136 J/K/mol
500.4 K	135.9 J/K/mol
500.8 K	136.1 J/K/mol
501.4 K	136 J/K/mol
501.8 K	136.1 J/K/mol
502.4 K	136.1 J/K/mol
502.8 K	136.1 J/K/mol
503.4 K	136.2 J/K/mol
503.8 K	136.2 J/K/mol
504.4 K	136.2 J/K/mol
504.8 K	136.2 J/K/mol
505.4 K	136.3 J/K/mol
505.8 K	136.3 J/K/mol
506.4 K	136.3 J/K/mol
506.8 K	136.4 J/K/mol
507.4 K	136.4 J/K/mol
507.8 K	136.5 J/K/mol
508.4 K	136.5 J/K/mol
508.8 K	136.5 J/K/mol
509.4 K	136.6 J/K/mol
509.8 K	136.5 J/K/mol
510 K	136.6 J/K/mol
510.4 K	136.6 J/K/mol
510.8 K	136.6 J/K/mol
511.4 K	136.7 J/K/mol
511.8 K	136.7 J/K/mol
512.4 K	136.8 J/K/mol
512.8 K	136.8 J/K/mol
513.4 K	136.9 J/K/mol
513.8 K	136.9 J/K/mol
514.4 K	137 J/K/mol
514.8 K	136.9 J/K/mol
515.4 K	137.1 J/K/mol
515.8 K	137 J/K/mol
516.4 K	137.1 J/K/mol
516.8 K	137 J/K/mol
517.4 K	137.2 J/K/mol
517.8 K	137.1 J/K/mol
518.4 K	137.3 J/K/mol
518.8 K	137.2 J/K/mol
519.4 K	137.3 J/K/mol
519.8 K	137.3 J/K/mol
520 K	137.3 J/K/mol
520.4 K	137.4 J/K/mol
520.8 K	137.3 J/K/mol
521.4 K	137.5 J/K/mol
521.8 K	137.4 J/K/mol
522.4 K	137.6 J/K/mol
522.8 K	137.5 J/K/mol
523.4 K	137.7 J/K/mol
523.8 K	137.6 J/K/mol
524.4 K	137.7 J/K/mol
524.8 K	137.6 J/K/mol
525.4 K	137.8 J/K/mol
525.8 K	137.7 J/K/mol
526.4 K	137.8 J/K/mol
526.8 K	137.7 J/K/mol
527.4 K	137.9 J/K/mol
527.8 K	137.7 J/K/mol
528.4 K	137.9 J/K/mol
528.9 K	137.8 J/K/mol
529.4 K	138 J/K/mol
529.9 K	137.8 J/K/mol
530 K	137.9 J/K/mol
530.4 K	138.1 J/K/mol
530.9 K	137.8 J/K/mol
531.4 K	138.1 J/K/mol
531.9 K	137.8 J/K/mol
532.4 K	138.2 J/K/mol
532.9 K	137.9 J/K/mol
533.4 K	138.2 J/K/mol
533.9 K	138 J/K/mol
534.4 K	138.3 J/K/mol
534.9 K	138.1 J/K/mol
535.4 K	138.3 J/K/mol
535.9 K	138.2 J/K/mol
536.4 K	138.4 J/K/mol
536.9 K	138.3 J/K/mol
537.4 K	138.5 J/K/mol
537.9 K	138.4 J/K/mol
538.4 K	138.5 J/K/mol
538.9 K	138.5 J/K/mol
539.4 K	138.6 J/K/mol
539.9 K	138.7 J/K/mol
540 K	138.4 J/K/mol
540.4 K	138.7 J/K/mol
540.9 K	138.8 J/K/mol
541.4 K	138.7 J/K/mol
541.9 K	138.8 J/K/mol
542.4 K	138.8 J/K/mol
542.9 K	138.8 J/K/mol
543.4 K	138.8 J/K/mol
543.9 K	138.9 J/K/mol
544.4 K	138.9 J/K/mol
544.9 K	138.9 J/K/mol
545.4 K	138.9 J/K/mol
545.9 K	138.9 J/K/mol
546.4 K	139 J/K/mol
546.9 K	138.9 J/K/mol
547.4 K	139 J/K/mol
547.9 K	139 J/K/mol
548.4 K	139 J/K/mol
548.9 K	139.1 J/K/mol
549.4 K	139 J/K/mol
549.9 K	139.2 J/K/mol
550 K	139 J/K/mol
550.4 K	139.1 J/K/mol
550.9 K	139.3 J/K/mol
551.4 K	139.1 J/K/mol
551.9 K	139.5 J/K/mol
552.4 K	139.2 J/K/mol
552.9 K	139.6 J/K/mol
553.4 K	139.2 J/K/mol
553.9 K	139.7 J/K/mol
554.4 K	139.3 J/K/mol
554.9 K	139.8 J/K/mol
555.4 K	139.3 J/K/mol
555.9 K	139.8 J/K/mol
556.4 K	139.4 J/K/mol
556.9 K	139.8 J/K/mol
557.4 K	139.5 J/K/mol
557.9 K	139.8 J/K/mol
558.4 K	139.5 J/K/mol
558.9 K	139.8 J/K/mol
559.4 K	139.6 J/K/mol
559.9 K	139.9 J/K/mol
560 K	139.5 J/K/mol
560.4 K	139.7 J/K/mol
560.9 K	139.9 J/K/mol
561.4 K	139.7 J/K/mol
561.9 K	140 J/K/mol
562.4 K	139.8 J/K/mol
562.9 K	140.2 J/K/mol
563.4 K	139.8 J/K/mol
563.9 K	140.4 J/K/mol
564.4 K	139.9 J/K/mol
564.9 K	140.6 J/K/mol
565.4 K	139.9 J/K/mol
565.9 K	140.7 J/K/mol
566.4 K	139.9 J/K/mol
566.9 K	140.8 J/K/mol
567.4 K	139.9 J/K/mol
568 K	140.8 J/K/mol
568.4 K	140 J/K/mol
569 K	140.9 J/K/mol
569.4 K	140.1 J/K/mol
570 K	140 J/K/mol and 141 J/K/mol
570.4 K	140.2 J/K/mol
571 K	141 J/K/mol
571.4 K	140.2 J/K/mol
572 K	141 J/K/mol
572.4 K	140.3 J/K/mol
573 K	141 J/K/mol
573.4 K	140.3 J/K/mol
574 K	141.1 J/K/mol
574.4 K	140.4 J/K/mol
575 K	141.2 J/K/mol
575.4 K	140.4 J/K/mol
576 K	141.2 J/K/mol
576.4 K	140.5 J/K/mol
577 K	141.3 J/K/mol
577.4 K	140.6 J/K/mol
578 K	141.3 J/K/mol
578.4 K	140.7 J/K/mol
579 K	141.2 J/K/mol
579.4 K	140.7 J/K/mol
580 K	140.5 J/K/mol and 141.2 J/K/mol
580.4 K	140.8 J/K/mol
581 K	141.2 J/K/mol
581.4 K	140.8 J/K/mol
582 K	141.3 J/K/mol
582.4 K	140.8 J/K/mol
583 K	141.3 J/K/mol
583.4 K	140.9 J/K/mol
584 K	141.4 J/K/mol
584.4 K	140.9 J/K/mol
585 K	141.6 J/K/mol
585.4 K	141 J/K/mol
586 K	141.7 J/K/mol
586.4 K	141 J/K/mol
587 K	141.8 J/K/mol
587.4 K	141 J/K/mol
588 K	141.9 J/K/mol
588.4 K	141 J/K/mol
589 K	142 J/K/mol
589.4 K	141 J/K/mol
590 K	141 J/K/mol and 142.1 J/K/mol
590.4 K	141.1 J/K/mol
591 K	142.1 J/K/mol
591.4 K	141.2 J/K/mol
592 K	142 J/K/mol
592.4 K	141.2 J/K/mol
593 K	142 J/K/mol
593.4 K	141.2 J/K/mol
594 K	142 J/K/mol
594.4 K	141.2 J/K/mol
595 K	142 J/K/mol
595.4 K	141.2 J/K/mol
596 K	142.1 J/K/mol
